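Compound exposure: 48 hours, 5 concentrations, 96-well plates. GI50 = concentration required for 50% inhibition of growth. TGI: concentration producing complete growth inhibition.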
Key:
Test in all cases: growth of human tumour cells (NCI), 48 h
COLO 205 colon = system: COLO 205 colon
HT29 colon = system: HT29 colon
CCRF-CEM leukemia = system: CCRF-CEM leukemia
M14 melanoma = system: M14 melanoma
HOP-62 NSCLC = system: HOP-62 NSCLC
NCI-H460 lung = system: NCI-H460 lung
M19-MEL melanoma = system: M19-MEL melanoma
MALME-3M melanoma = system: MALME-3M melanoma
DMS 273 small cell lung = system: DMS 273 small cell lung
DU-145 prostate = system: DU-145 prostate

Row | Compound | TGI (COLO 205 colon) | TGI (HT29 colon) | TGI (CCRF-CEM leukemia) | TGI (M14 melanoma) | TGI (HOP-62 NSCLC) | TGI (NCI-H460 lung) | TGI (M19-MEL melanoma) | TGI (MALME-3M melanoma) | TGI (DMS 273 small cell lung) | GI50 (COLO 205 colon) | GI50 (HT29 colon) | GI50 (CCRF-CEM leukemia) | GI50 (M14 melanoma) | GI50 (DU-145 prostate) | TGI (DU-145 prostate) | GI50 (HOP-62 NSCLC) | GI50 (NCI-H460 lung) | GI50 (MALME-3M melanoma)
1 | CC1=C(C(=O)Nc2cc(=O)n(C)c(=O)n2C)C(c2cccc([N+](=O)[O-])c2)C(C(=O)Nc2cc(=O)n(C)c(=O)n2C)=C(C)N1 | > 100 µM | > 100 µM | > 100 µM | > 100 µM | > 100 µM | > 100 µM | > 100 µM | > 100 µM |  |  |  |  |  |  |  |  |  | 
2 | CCOC(=O)N1c2c(ccn2C)-c2ccn(C)c2N1C(=O)OCC | 57.1 µM | 30.1 µM | 13.8 µM | 30.8 µM | > 100 µM | 49.3 µM | 80 µM | 37.1 µM |  |  |  |  |  |  |  |  |  | 
3 | O=C(O)NC(c1ccccc1)C(NC(=O)c1ccccc1)c1ccccc1 (stereo not drawn) | > 100 µM | > 100 µM |  |  | > 100 µM | > 100 µM | > 100 µM | > 100 µM |  |  |  |  |  |  |  |  |  | 
4 | COc1cc(OC)c(SSCCCCS(=O)O)c(OC)c1 | 35.7 µM | 32.9 µM | 42.9 µM | 27.5 µM | 67 µM | 38.1 µM | 22.9 µM | 31 µM | 34.8 µM |  |  |  |  |  |  |  |  | 
5 | C/C=C1\C=C(OC)CN(CCc2c[nH]c3ccccc23)C1 | > 100 µM | > 100 µM | > 100 µM | 95.6 µM | > 100 µM | > 100 µM | > 100 µM | 56.8 µM | > 100 µM |  |  |  |  |  |  |  |  | 
6 | CC(=O)OC1CCn2nnc(CO)c21 (stereo not drawn) | > 100 µM | > 100 µM |  |  |  | > 100 µM | > 100 µM | > 100 µM | > 100 µM |  |  |  |  |  |  |  |  | 
7 | CC(=O)OC[C@]1(C)CCCC2(C)C1CCC1C=C(C)[C@H]3CCC12C3 (stereo partly drawn) | > 100 µM | > 100 µM | > 100 µM | > 100 µM | > 100 µM | > 100 µM | > 100 µM | > 100 µM |  |  |  |  |  |  |  |  |  | 
8 | O=C1Cc2c([nH]c3ccccc23)-c2ccccc2N1 | 45.9 µM | 69 µM | > 100 µM | > 100 µM | 97.7 µM | > 100 µM | > 100 µM | > 100 µM | > 100 µM |  |  |  |  |  |  |  |  | 
9 | CCN(CC)CCCNC(=O)C1COc2cc(-c3cc(=O)c4ccccc4o3)ccc2O1 (stereo not drawn) | 81.4 µM | > 100 µM | > 100 µM | 40 µM | > 100 µM | > 100 µM | 76.4 µM | 36.8 µM | > 100 µM |  |  |  |  |  |  |  |  | 
10 | Cc1nc(C(N)=S)sc1C(=O)CC(=O)C(=O)Nc1ccccc1[N+](=O)[O-] |  | > 100 µM | > 100 µM | > 100 µM | > 100 µM | > 100 µM | > 100 µM | > 100 µM | > 100 µM |  |  |  |  |  |  |  |  | 
11 | CCOC(=O)/C(=C\c1ccc(N(CCC#N)CCC#N)cc1)NC(=O)c1cc([N+](=O)[O-])ccc1Cl | > 100 µM | > 100 µM | > 100 µM | > 100 µM | > 100 µM | > 100 µM | > 100 µM | > 100 µM | > 100 µM |  |  |  |  |  |  |  |  | 
12 | CN1CC(=O)N(C)c2ncn(Cc3ccccc3)c2C1=O | > 100 µM | > 100 µM | > 100 µM | > 100 µM |  | > 100 µM | > 100 µM | > 100 µM | > 100 µM |  |  |  |  |  |  |  |  | 
13 | CCN(Cc1ccccc1)c1ccc(CO)c(Cl)c1 | 4.51 µM | 36.3 µM | > 100 µM | > 65.1 µM | 79.5 µM | 13.9 µM |  | > 82.6 µM |  | 1.74 µM | 3.07 µM | 23.3 µM | 20.1 µM | 22.5 µM | > 59.4 µM | 0.963 µM | 0.327 µM | 28.6 µM
14 | C=C(C)[C@@H]1CC[C@]2(C(=O)O)CC[C@]3(C)[C@H](CC[C@@H]4[C@@]5(C)CCC(NC(=O)c6cccc(OC(C)=O)c6OC(C)=O)C(C)(C)[C@@H]5CC[C@]43C)[C@@H]12 (stereo partly drawn) | 1.9 µM | 3.14 µM | 18.9 µM | 2.25 µM | 3.3 µM | 1.42 µM |  | 1.47 µM |  | 0.345 µM | 0.806 µM | 0.585 µM | 0.399 µM | 0.882 µM | > 100 µM | 0.785 µM | 0.38 µM | 0.317 µM
15 | COc1ccccc1C(O)(c1ccccc1)C(O)(c1ccccc1)c1ccccc1OC (stereo not drawn) | > 100 µM | > 100 µM | > 100 µM | > 100 µM | > 100 µM | > 100 µM | > 100 µM | > 100 µM | > 100 µM |  |  |  |  |  |  |  |  | 
16 | COc1ccc(NC([Se])=NC23CC4CC(CC(C4)C2)C3)cc1 | 3.95 µM | 15 µM | 4.97 µM | 3.29 µM | 9.49 µM | 10.7 µM |  | 3.74 µM |  | 1.66 µM | 2.64 µM | 0.705 µM | 1.37 µM | 3.13 µM | 11.2 µM | 2.24 µM | 1.98 µM | 0.653 µM
17 | Cc1ccc(N2C(=O)C=C(C3=C(O)C(=O)N(c4ccc(C)cc4)C3=O)C2=O)cc1 | > 100 µM | > 100 µM | > 100 µM | > 100 µM | > 100 µM | > 100 µM |  | > 100 µM |  |  |  |  |  |  | > 100 µM |  |  | 
18 | c1cc(N2CCCN(c3ccc(C4=NCCCN4)cc3)CC2)ccc1C1=NCCCN1 | > 100 µM | > 100 µM | > 100 µM | > 100 µM | > 100 µM | > 100 µM |  | > 100 µM |  | > 100 µM | > 100 µM | > 100 µM | > 100 µM | > 100 µM | > 100 µM | > 100 µM | 36.7 µM | > 100 µM
19 | CC(=O)NC1=C(NC(C)(C)C)C(=O)c2ccccc2C1=O | > 100 µM | 49.7 µM | 9.28 µM | 31.1 µM | > 100 µM | 41.1 µM | 28.7 µM | 33.9 µM | 45.4 µM |  |  |  |  |  |  |  |  | 
20 | COc1cc(-c2ccc(-c3ccc(C(=N)N)nc3)s2)cc(OC)c1OC | 3.26 µM | 5.68 µM | 7.41 µM | 3.33 µM | 11.5 µM | 4.39 µM |  | 3 µM |  | 1.6 µM | 1.37 µM | 2.49 µM | 1.66 µM | 3.45 µM | 12.1 µM | 2.79 µM | 2.1 µM | 1.53 µM
